Earlier results, collected in patent publication US6764831B2, “Methods and compositions for pain management” (priority 1998, dated 2004).

Key:
[1] = injected into the brachial artery of humans
cholinesterase (ChE) = settings: muscle relaxants used with anesthesia
[2] = test system: ACh level in the extracellular space; settings: injection into rats

SMILES	effect on cholinesterase (ChE) (cholinesterase (ChE))	other results
CC(=O)OCC[N+](C)(C)C [ACh, acetylcholine]	–	pain produced on injection [1]: extreme pain was produced
COc1ccc(C[C@@H]2c3cc(OC)c(OC)cc3CC[N@+]2(C)CCC(=O)OCCCCCOC(=O)CC[N@@+]2(C)CCc3cc(OC)c(OC)cc3[C@H]2Cc2ccc(OC)c(OC)c2)cc1OC [NIMBEX]	no effect	–
CC(=O)O[C@H]1C[C@@H]2CC[C@@H]3[C@H](CC[C@@]4(C)[C@H]3C[C@H]([N+]3(C)CCCCC3)[C@@H]4OC(C)=O)[C@@]2(C)C[C@@H]1N1CCCCC1.[Br-] [NOCURON]	no effect	–
C=CC[N+]1([C@H]2C[C@H]3[C@@H]4CC[C@H]5C[C@H](O)[C@@H](N6CCOCC6)C[C@]5(C)[C@H]4CC[C@]3(C)[C@H]2OC(C)=O)CCCC1 [ROCURONIUM]	no effect	–
C[N+](C)(C)CCOC(=O)CCC(=O)OCC[N+](C)(C)C [Succinylcholine]	no effect	–
CCCCCCCNC(=O)Oc1ccc2c(c1)[C@]1(C)CCN(C)[C@@H]1N2C [heptylphysostigmine]	–	ACh level in the extracellular space [2]: elevation
CN(C)C(=O)Oc1cccc([N+](C)(C)C)c1 [neostigmine]	–	extracellular ACh level (extracellular ACh level): above detection limit; cholinesterase inhibition (cholinesterase): inhibit
